Experiment [1] deals with tyrosinase enzyme extracted from mushrooms. The experiment can be described thus: Tyrosinase inhibitory effect, absorbance at 475 nm. The experiment is classed as biochemical. Conditions: mushroom tyrosinase, tyrosine substrate, 37° C., concentration of test substance not given. The protocol: The tyrosinase enzyme was extracted from mushrooms and obtained from Sigma (SIGMA). First, tyrosine as a substrate was dissolved in distilled water to prepare 0.3 mg/ml of a solution. The solution was placed by 1.0 ml in a test tube, and then 1.0 ml of potassium phosphate buffer solution (concentration 0.1 mol, PH 6.8) and 0.7 ml of distilled water were added to prepare a reaction solution.
0.2 ml of the test substance was placed in the reaction solution, and then the mixture was allowed to react in a thermostatic chamber at 37° C. for 10 minutes. At this time, as a negative control group (no addition), that obtained by adding 0.2 ml of only solvent in place of each test substance was prepared. As a positive control group, ascorbic acid was used. 2500 unit/ml of tyrosinase solution was added by 0.1 ml to the reaction solution, and the mixture was reacted again in a thermostatic chamber at 37° C. for 10 minutes. The test tube containing this reaction solution was placed in ice water and quenched to stop the reaction. Absorbance at a wavelength of 475 nm was measured with a photoelectron spectrometer. Each tyrosinase inhibitory effect was calculated by Mathematical Equation 1 below. The tests were conducted on ginsenoside Rd and compound O, respectively. Tyrosinase inhibition rate (%)=100−[{(Reaction absorbance of test substance)/(Reaction absorbance of negative control group)}×100] […]

In experiment [2] the test system is keratinocytes (cell line: HaCaT). As to the kind of experiment: Inhibition of UVB-induced reactive oxygen species (ROS) generation, DCF-DA fluorescence. The class given is cell-based. How it is done: 5×10^4 keratinocytes (cell line: HaCaT; obtained from: ATCC) was placed in each well of a 24-well plate and allowed to adhere for 24 hours. After 16 hours, ginsenoside Rd was treated with 1%. […] After 2 hours, the culture solution was removed, and 100 μl of phosphate buffer saline (PBS) was added to each well. The keratinocytes were irradiated with ultraviolet rays of 30 mJ/cm^2 using an ultraviolet B (UVB) lamp (Model: […], UV B 15 W, Sankyo Denki, Japan), and then PBS was taken out and 200 μl of keratinocyte culture solution was added to each well. Herein, ginsenoside Rd was again treated and the amount of reactive oxygen species increased by ultraviolet stimulation was determined for each fixed period of time. The amount of ROS was determined by referring to Tan's method for measuring the fluorescence of DCF-DA (dichlorofluorescin diacetate) oxidized by ROS (Tan et al., 1998, J. Cell Biol. Vol. 141, pp 1423-1432). The ginsenoside Rd was replaced with Compound O, and the test was carried out in the same process.

In the next experiment the test system is B16/F10 melanoma cells. The experiment can be described thus: Inhibition of melanin production in B16/F10 melanoma cells. The experiment is classed as cell-based, mouse. Conditions: 72 hours, concentration not given. From the text:
The B16/F10 melanoma used in this test example is a cell line derived from a mouse and is a cancer cell caused by malignant alteration of a cell secreting a black pigment called melanin. The extent to which and melanin production was decreased by treating the test substance during artificial cultivation of this cell was compared and evaluated. The B16/F10 melanoma used in this test example was purchased from the Korean Cell Line Bank (KCLB No: 8008) and used. Measurement of melanin biosynthesis inhibitory effect of B16/F10 melanoma was carried out as follows. B16/F10 melanoma was dispensed in a 6-well plate (5×10^5/well) and cultured in DMEM (Dulbecco's Modified Eagle's Medium) containing 10% FBS (fetal bovine serum) for about 24 hours at 37° C. in a 5% CO2 incubator (MCO-20 AIC, Sanyo). The test substance was added to a new DMEM medium not containing FBS and allowed to stand for 72 hours. […] Absorbance was measured at 405 nm using an ELISA reader (DIbiotech, Korea). […] In comparison with the melanin content in the control group, the degree of inhibition of melanin production of each test substance was measured. […] Melanin production inhibition rate was calculated according to Mathematical Equation 2 below, and the results are shown in Table 4. Melanin production inhibition rate (%)=100−[{(Absorbance of test substance)/(Absorbance of control group)}×100] […]

A further experiment relates to Aspergillus niger. As to the kind of experiment: Antibacterial activity, MIC by two-fold dilution. The class given is cell-based. The following applies: 25° C., 48 hours. The protocol:
(§1) Antibacterial experiments were conducted to evaluate the antibacterial activity of ginsenoside Rd and Compound O. Specific experimental methods are as follows. The strains of Staphylococcus aureus, Escherichia coli and Pseudomonas aeruginosa used in the experiment were cultured in Trypticase Soy Broth, and the strains of Candida albicans, Aspergillus niger were cultured in Sabouraud Dextrose Broth medium. A diluted solution in which the culture solution is diluted 1/100 (Candida albicans strain 1/10) in each culture medium was used as a test strain solution. A spore suspension of Aspergillus niger (2×10^8 cfu/ml) was used as a test strain solution. A solution prepared by adding 0.15 ml of the test strain solution to 15 ml of each medium and thoroughly mixing the same was used as a diluted solution. 96 Deep well plate was placed by 16 μl ginsenoside Rd 10 ppm to 1 row and placed by 184 μl a diluted solution. The diluted solution was placed by 100 μl in the rest of the wells. The mixed solution of 1 row was thoroughly mixed and 100 μl was taken and placed in 2 row and thoroughly mixed. 100 μl was taken again and placed in 3 row. A two-fold dilution was carried out in this manner. Staphylococcus aureus, Escherichia coli and Pseudomonas aeruginosa were cultured in a thermostatic chamber at 32° C., and Candida albicans and Aspergillus niger were cultured in a thermostatic chamber at 25° C. After 48 hours, the growth of strains was checked by the degree of suspension and microscope, and the Minimum Inhibitory Concentration (MIC) value was determined. The ginsenoside Rd was replaced with Compound O, and the test was carried out in the same process.

A further experiment deals with Candida albicans. As to the kind of experiment: Antibacterial activity, MIC by two-fold dilution. The class given is cell-based. Conditions: 25° C., 48 hours. How it is done:
as §1

A further experiment relates to Escherichia coli. As to the kind of experiment: Antibacterial activity, MIC by two-fold dilution. The experiment is classed as cell-based. The following applies: 32° C., 48 hours. The protocol:
as §1

Another experiment deals with Pseudomonas aeruginosa. The experiment can be described thus: Antibacterial activity, MIC by two-fold dilution. The experiment is classed as cell-based. The following applies: 32° C., 48 hours. How it is done:
as §1

A further experiment relates to Staphylococcus aureus. The experiment can be described thus: Antibacterial activity, MIC by two-fold dilution. The experiment is classed as cell-based. The following applies: 32° C., 48 hours. The protocol:
as §1

The structures appear in SMILES notation.

Consider `O=C1O[C@H]([C@@H](O)CO)C(O)=C1O` [Ascorbic acid, reference compound], for which, in experiment [1], the “Tyrosinase inhibition rate (%)” value worked out at 56%.

Consider `CC(C)=CCC[C@](C)(O[C@@H]1O[C@H](CO)[C@@H](O)[C@H](O)[C@H]1O)[C@H]1CC[C@]2(C)[C@@H]1[C@H](O)C[C@@H]1[C@@]3(C)CC[C@H](O[C@@H]4O[C@H](CO)[C@@H](O)[C@H](O)[C@H]4O[C@@H]4O[C@H](CO)[C@@H](O)[C@H](O)[C@H]4O)C(C)(C)[C@@H]3CC[C@]12C` [Ginsenoside Rd], for which the “Amount of ROS, ratio to vehicle control” value in experiment [2] (0 hr after irradiation of UVB 30 mJ/cm^2, test substance treated with 1%) was 100; in experiment [2] (2 hr after irradiation of UVB 30 mJ/cm^2, test substance treated with 1%) it was 251; in experiment [2] (3 hr after irradiation of UVB 30 mJ/cm^2, test substance treated with 1%), 286. Besides, in experiment [1], the “Tyrosinase inhibition rate (%)” value worked out at 68%. Besides, the “Melanin production inhibition rate (%)” value with B16/F10 melanoma cells amounted to 67%. Also, the “Minimum Inhibitory Concentration (MIC)” value in the experiment with Aspergillus niger is recorded as greater than 3%; in the experiment on Candida albicans, greater than 4%; in the experiment with Escherichia coli, 0.191%; with Pseudomonas aeruginosa, 0.25%; in the experiment on Staphylococcus aureus, 0.07%.

Take `O=c1cc(CO)occ1O` [Kojic acid, reference compound]: in the experiment with B16/F10 melanoma cells, the “Melanin production inhibition rate (%)” value was determined as 49%.

The values above are taken from patent US10835470B2, “Cosmetics composition containing ginsenoside as active ingredient” (AMOREPACIFIC CORPORATION, priority 2015, dated 2020).
